Experimental data: patent publication US20230374112A1, “Bioactive Collagen Peptides, Method Of Production Thereof, And Use Thereof” (CORPORATION GENACOL CANADA INC., priority 2020, published 2023)
Read-outs that look alike come from different tables or passages of the source. Non-standard residues stand in square brackets, D forms with d. Residues, ends and D or L forms follow the SMILES beside them. No end group written: not given here. Hyp = O=C(O)[C@@H]1C[C@@H](O)CN1

Experiments:
[1] = system: HIEC-6/HepG2 cell coculture system
Experimental: Based on the daily dose used in the clinical trials and the current recommendations of the bottle, 1200 mg of Genacol CH product (bovine) or a generic CH product (bovine) was added (3% w/v) to sterile ddH2O (Bernado & Azarcon, 2012; Bruyère et al., 2012; Feliciano et al., 2017). Three independent digestions for each CH product were completed. The vessels were placed in a 37° C. water bath, with continuous agitation. A pepsin solution was added, the pH adjusted to 2 and incubated for 30 min. Then, a bile solution was added, the pH adjusted to 7.5 and incubated for 90 min at 37° C. Pepsin (4% w/w protein basis) and pancreatin (4% w/w protein basis) were added (Aleman et al., 2013). The pancreatin digestion was stopped with the addition of NaOH, until the pH was 10 and the resulting digesta was cooled and frozen at −80° C. Digesta subsamples were taken and filtered using 0.2 μm syringe filters.
The final digesta was filtered using a molecular weight cut off (MWCO) of 10 kDa in a stirred Amicon™ ultrafiltration membrane reactor at 4° C. under a nitrogen gas pressure of 40 psi (Iskandar et al., 2015). The filtrates were freeze-dried at −50 to −60° C. and 0.85 mBar (0.64 mm Hg) (Gamma 1-16 LSC, Christ, Osterode am Harz, Germany) and stored at −80° C. until used in cell culture.
Two bovine-sourced CH products were used: Original Formula® (Genacol, Blainville, QC) (CH-GL) and a generic brand (such as Selection™, Uniprix, Quebec, Canada) (CH-GR). HIEC-6 (ATCC® CRL-3266™) and Hep G2 (ATCC® HB-8065™) cells were purchased from ATCC to represent the gastrointestinal and liver wall lining, respectively. HIEC-6 cells were cultured using OptiMEM™ 1 Reduced Serum Medium (Gibco Catalog No. 31985) with 20 mM HEPES, 10 mM GlutaMAX™ (Gibco Catalog No. 35050), 10 ng/mL Epidermal Growth Factor, 4% fetal bovine serum (FBS). HepG2 cells were grown using ATCC-formulated Eagle's Minimum Essential Medium (Catalog No. 30-2003), with 10% FBS. Cells were maintained at 37° C. with 90% relative humidity (RH) and 5% C02 in culture medium as described herein.
HIEC-6/HepG2 cell coculture system was used to determine the bioavailability of key bioactive peptides from CHs after digestion. HIEC-6 and HepG2 cells were cultured separately but then later combined in a transwell system.
HIEC-6 cells were seeded onto 24-well polyester (PET) ThinCert™ inserts from Greiner Bio-One (Kremsmünster, Austria) at a density of 1×10^5 cells/well. The medium was changed every 2 days and the cells were grown for a total of 8-9 days. Transepithelial electrical resistance (TEER) was measured using a volt-ohmmeter to assess integrity of monolayer. […] Three individual plate experiments were completed for each CH product.
At time 0, the apical medium was replaced with medium containing 2 mg/ml of freeze-dried CH dissolved in medium using either the Genacol (GL) peptide or the Generic (GR) CH products. HepG2 cells were added to the basolateral side of the transwell (1 million cells/mL). The plates were incubated for 2 h at 37° C., 5% C02. Subsamples were taken at time 0, and after 2 h.

[2] = cited from earlier work
[3] = target: dipeptidyl peptidase-4 (DPP-IV) (Homo sapiens, UniProt P27487); details: literature; cited from earlier work
[4] = human, in vivo, po, 80 mg/kg; cited from earlier work
[5] = system: Caco-2 cells; details: cited from earlier work

Chain of dipeptidyl peptidase-4 (DPP-IV) (P27487 whole entry, species assumed): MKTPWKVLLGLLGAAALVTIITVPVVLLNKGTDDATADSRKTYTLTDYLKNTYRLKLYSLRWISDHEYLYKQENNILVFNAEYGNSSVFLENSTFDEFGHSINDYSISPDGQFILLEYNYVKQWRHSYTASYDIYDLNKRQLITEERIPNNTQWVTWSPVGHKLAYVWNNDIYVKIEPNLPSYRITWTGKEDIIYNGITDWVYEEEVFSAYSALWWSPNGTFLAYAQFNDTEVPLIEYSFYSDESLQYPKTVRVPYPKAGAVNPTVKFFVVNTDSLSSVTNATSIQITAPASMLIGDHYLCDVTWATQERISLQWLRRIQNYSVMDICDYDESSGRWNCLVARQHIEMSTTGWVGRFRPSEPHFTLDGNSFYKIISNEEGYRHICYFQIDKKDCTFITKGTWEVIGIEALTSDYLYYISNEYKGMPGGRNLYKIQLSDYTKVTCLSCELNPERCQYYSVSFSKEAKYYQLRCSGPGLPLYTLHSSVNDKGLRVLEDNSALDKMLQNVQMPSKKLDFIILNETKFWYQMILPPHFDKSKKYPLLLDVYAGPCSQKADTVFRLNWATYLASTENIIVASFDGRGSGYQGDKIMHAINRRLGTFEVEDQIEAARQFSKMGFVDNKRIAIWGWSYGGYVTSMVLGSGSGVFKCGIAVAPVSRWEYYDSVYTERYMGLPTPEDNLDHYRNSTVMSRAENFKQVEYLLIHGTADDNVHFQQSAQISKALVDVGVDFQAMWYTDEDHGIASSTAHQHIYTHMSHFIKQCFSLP

| Compound | Peptide concentration, Basolateral T0 [1] [µg/mL] | permeability ([2]; not told) [%] | further results |
| --- | --- | --- | --- |
| O=C(O)[C@@H]1C[C@@H](O)CN1C(=O)[C@@H]1CCCN1 [Pro-Hyp] (H-Pro-[Hyp]-OH; N-terminus and C-terminus assumed) | 0 ± 0 | – | – |
| HLPLP | – | 0.018 | – |
| LPYPY | – | – | permeability ([2]; milk-derived peptides, literature): 0.05% |
| YPY | – | 5.56 | – |
| Gly-Pro-Ala | – | – | activity against DPP-IV [3]: only Gly-Pro-Hyp showed any activity |
| NCC(=O)N1CCC[C@H]1C(=O)N1C[C@H](O)C[C@H]1C(=O)O [Gly-Pro-Hyp] (H-Gly-Pro-[Hyp]-OH; N-terminus and C-terminus assumed) | 0 ± 0 | – | greatest content found in the blood [4]: ~22 µM; time of peak blood content [4]: 1 h; percentage transported across the cell monolayer [5]: 3.59% |
| Gly-Ala-[Hyp] | – | – | activity against DPP-IV [3]: only Gly-Pro-Hyp showed any activity |
| SDK | – | 21.68 | – |
| NCC(=O)N1CCC[C@H]1C(=O)O [Gly-Pro] (H-Gly-Pro-OH; N-terminus and C-terminus assumed) | 0 ± 0 | – | – |
| C[C@H](N)C(=O)N1C[C@H](O)C[C@H]1C(=O)O [Ala-Hyp] (H-Ala-[Hyp]-OH; N-terminus and C-terminus assumed) | 0 ± 0 | – | – |
